What was measured:
Format in all cases: biochemical
[1] = target: T1, Stk6 (Homo sapiens, UniProt O14965); assay: Z'-Lyte FRET kinase assay (Invitrogen), Stk6; settings: read-out: IC50, activity toward kinase Stk6
T1 construct: purchased Invitrogen (Carlsbad, Calif.), screening service
T1 sequence (O14965 1-403): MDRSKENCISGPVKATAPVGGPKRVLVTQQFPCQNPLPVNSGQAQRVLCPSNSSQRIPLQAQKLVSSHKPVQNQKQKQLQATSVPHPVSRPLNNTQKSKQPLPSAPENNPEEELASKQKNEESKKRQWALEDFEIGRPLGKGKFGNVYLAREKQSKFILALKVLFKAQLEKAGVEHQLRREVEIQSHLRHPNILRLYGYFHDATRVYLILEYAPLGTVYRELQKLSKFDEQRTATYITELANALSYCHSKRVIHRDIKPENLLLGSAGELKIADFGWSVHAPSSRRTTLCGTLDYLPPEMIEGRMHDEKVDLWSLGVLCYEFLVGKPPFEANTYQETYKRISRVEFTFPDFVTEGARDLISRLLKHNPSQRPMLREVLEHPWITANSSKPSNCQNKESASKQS

[2] = target: T2, B-Raf (Homo sapiens, UniProt P15056); assay: AlphaScreen kinase assay, B-Raf; settings: read-out: IC50, activity toward kinase B-Raf
T2 construct: purchased Upstate Biotechnology

[3] = target: T3, Ret (Homo sapiens, UniProt P07949); assay: AlphaScreen kinase assay, Ret; settings: read-out: IC50, activity toward kinase Ret
T3 construct: P1378.pET-SF BI-PTP RET H661-R1012 HIS; made in house
T3 sequence (P07949 with tags, fused parts or gaps): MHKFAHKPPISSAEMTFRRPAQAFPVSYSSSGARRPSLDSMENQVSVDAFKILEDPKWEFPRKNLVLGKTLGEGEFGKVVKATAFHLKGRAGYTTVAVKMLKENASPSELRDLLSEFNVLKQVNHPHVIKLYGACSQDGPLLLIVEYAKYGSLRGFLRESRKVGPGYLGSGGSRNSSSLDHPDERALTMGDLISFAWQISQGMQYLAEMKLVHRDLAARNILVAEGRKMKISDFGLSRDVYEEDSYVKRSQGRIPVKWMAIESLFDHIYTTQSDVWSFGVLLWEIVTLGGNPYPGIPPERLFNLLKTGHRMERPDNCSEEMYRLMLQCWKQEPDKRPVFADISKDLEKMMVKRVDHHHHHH

[4] = target: T4, Kdr (Homo sapiens, UniProt P35968); assay: Z'-Lyte FRET kinase assay (Invitrogen), Kdr; settings: read-out: IC50, activity toward kinase Kdr
T4 construct: purchased Invitrogen (assay run by Invitrogen)

[5] = target: T5, Yes (Homo sapiens, UniProt P07947); assay: Z'-Lyte FRET kinase assay (Invitrogen), Yes; settings: read-out: IC50, activity toward kinase Yes
T5 construct: purchased Invitrogen (Carlsbad, Calif.), screening service
Excerpt: The effect of potential modulators of kinase activity can be measured in a variety of different assays known in the art. For example, direct radiometric, indirect FRET or AlphaScreen assays may be used to assess the level of phosphorylation of a substrate in the presence of test compounds in order to determine the inhibitory affect of the compound on the kinase. Invitrogen (Carlsbad, Calif.) uses a FRET based assay for Btk, EGFR, EphB2, Flt3, lrak4, Kdr, MAP2K1, MAPKAPK2, PDGFRB, PKC theta, Stk6 and Yes. For these assays, compounds of the invention were screened by Invitrogen using Z′-Lyte™ kinase assay.
Briefly, the Invitrogen kinase assay involves use of a specific peptide substrate optimized for each kinase, containing a fluorophore at each end that make up the FRET pair. The peptide sensitivity to proteolytic cleavage depends on phosphorylation of the peptide. Non-phosphorylated peptide is cleaved by a protease while peptide phosphorylated by the kinase is not cleaved. Cleavage of the peptide disrupts the FRET between the donor (coumarin) and acceptor (fluorescein) fluorophores, resulting in an increase in the ratio of donor emission to acceptor emission. The emission ratio of coumarin to fluorescein is used to assess the reaction progress. The extent of phosphorylation is determined from the emission ratio, which is low when the kinase is active (phosphorylated peptide is not cleaved, FRET pair connected) or higher for inhibited kinase (non-phosphorylated peptide is cleaved, FRET pair separated). Thus, the assay involves a kinase reaction in the presence of varying concentrations of a given compound, a development reaction with site specific protease, and detection of the fluorescent emission ratio of coumarin and fluorscein. […] Reaction conditions for each kinase are determined to provide optimal reaction times, incubation temperature, kinase and ATP concentrations. Test samples are made up in 1× kinase buffer (50 mM HEPES pH 7.5, 50 mM MgCl2, 5 mM EGTA, 0.05% BRIJ-35) and compound at desired concentration prepared in DMSO such that the final DMSO is 1%. […] Typically, assay plates are prepared to 10 μl final volume per sample, adding 2.5 μl of compound at 4× the desired concentration in 4% DMSO (serial dilution of compound provides concentration curve), 5 μl of the desired kinase mixed with Z′-LYTE™ peptide substrate (2× in 2× kinase buffer, final peptide at 2 μM), and 2.5 μl of 4×ATP solution. All kinase except for MAP2K1 were at 10 μM ATP in the kinase reaction, while MAP2K1 was at 100 μM. Samples are mixed and the kinase reaction is incubated 1 hour at room temperature, after which 5 μl of development solution is added and mixed. After incubation for another 1 hour at room temperature, 5 μl of stop reagent is added to each sample and mixed. The fluorescence signals are measured to determine the emission ratio.

[6] = target: T6, Fms (Homo sapiens, UniProt P07333); assay: AlphaScreen kinase assay, Fms; settings: read-out: IC50, activity toward kinase Fms
T6 construct: purchased Upstate Biotechnology
Excerpt: (§1) AlphaScreen assay was used to screen additional kinases. The assay is similarly dependent on the phosphorylation of a peptide substrate. In this assay, an antibody that recognizes phosphorylated substrate is bound to an acceptor bead. The peptide substrate is attached to biotin, which binds to a donor head that contains streptavidin. Thus phosphorylated substrate is bound by antibody and streptavidin, bringing the donor and acceptor heads into close proximity when kinase is not inhibited. The donor produces singlet oxygen which results in emission from the acceptor when they are in close proximity. Conversely, when kinase is inhibited, the donor and acceptor beads are not associated and the emission from the acceptor is reduced.
(§2) AlphaScreen assays were done using compounds dissolved in DMSO to a concentration of 20 mM. The compounds were diluted accordingly to the desired final concentrations in each sample well, using 1:3 serial dilution for a total of 8 concentration points. Plates were prepared such that each kinase reaction is 20 μl in 1× kinase buffer, 5% DMSO and 10 μM ATP. After incubation of the kinase reaction for 1 hour at room temperature, 5 μl of donor beads in stop buffer (50 mM EDTA in 1× kinase buffer) was added, the sample was mixed and incubated for 20 minutes at room temperature before adding 5 μl of acceptor beads in stop buffer. The samples were incubated for 60 minutes at room temperature and the signal per well was read on AlphaQuest reader.

[7] = target: T7, B-Raf V600E (Homo sapiens, UniProt P15056, V600E); assay: AlphaScreen kinase assay, B-Raf V600E; settings: read-out: IC50, activity toward kinase B-Raf V600E
T7 construct: P4254. pFastBacBD-CDC37 BRAF D437-K722-X, V600E; His6 with pFastBac HT leader (TEV site) (N); made in house; host or cells: Sf9 (baculovirus; chaperone CDC37 co-expressed)

[8] = target: T8, FGFR1 (Homo sapiens, UniProt P11362, C488A/C584S); assay: AlphaScreen kinase assay, FGFR1; settings: read-out: IC50, activity toward kinase FGFR
T8 construct: P1351.pET N6 BI-PTP FGFR A458-E765-X C488A, C584S; made in house; host or cells: E. coli (PTP1B co-expressed)

[9] = target: T9, c-Raf-1 (Homo sapiens, UniProt P04049); assay: AlphaScreen kinase assay, c-Raf-1; settings: read-out: IC50, activity toward kinase c-Raf-1
T9 construct: purchased Upstate Biotechnology
Excerpt: as §1, §2

[10] = target: T10, Kit (Homo sapiens, UniProt P10721); assay: AlphaScreen kinase assay, Kit; settings: read-out: IC50, activity toward kinase Kit
T10 construct: P1332.N6 BI PTP KIT M552-K948-X COD; His6 (N); made in house; host or cells: E. coli (PTP1B co-expressed)

[11] = target: T11, Flt1 (Homo sapiens, UniProt P17948); assay: AlphaScreen kinase assay, Flt1; settings: read-out: IC50, activity toward kinase Flt1
T11 construct: P1826.pETN6 BI-PTP FLT1 M799-D1165-X WT; His6 (N); made in house; host or cells: E. coli (PTP1B co-expressed)
T11 sequence (P17948 with tags, fused parts or gaps): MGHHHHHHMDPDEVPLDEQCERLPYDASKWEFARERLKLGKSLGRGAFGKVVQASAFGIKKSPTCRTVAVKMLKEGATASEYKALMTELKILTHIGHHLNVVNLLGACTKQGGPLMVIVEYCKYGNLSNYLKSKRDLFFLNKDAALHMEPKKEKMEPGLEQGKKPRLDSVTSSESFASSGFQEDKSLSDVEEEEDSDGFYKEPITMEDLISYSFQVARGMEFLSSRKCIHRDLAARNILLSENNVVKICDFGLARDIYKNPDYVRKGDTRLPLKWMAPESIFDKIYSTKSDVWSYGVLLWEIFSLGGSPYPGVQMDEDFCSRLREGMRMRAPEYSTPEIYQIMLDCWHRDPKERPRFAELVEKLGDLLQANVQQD

[12] = target: T12, Jnk3 (Homo sapiens, UniProt P53779); assay: AlphaScreen kinase assay, Jnk3; settings: read-out: IC50, activity toward kinase Jnk3
T12 construct: purchased Upstate Biotechnology

[13] = target: T13, Src (Homo sapiens, UniProt P12931); assay: AlphaScreen kinase assay, Src; settings: read-out: IC50, activity toward kinase Src
T13 construct: P1144. pET-N6 BI-PTP SRC V86-L536-X; made in house

[14] = target: T14, Fak (Homo sapiens, UniProt Q05397); assay: AlphaScreen kinase assay, Fak; settings: read-out: IC50, activity toward kinase Fak
T14 construct: P1358.pFastBacHtb FAK S411-Q686-X; His6 with pFastBacHTb leader (TEV site) (N); made in house; host or cells: Sf9 (baculovirus)

[15] = target: T15, Jnk2 (Homo sapiens, UniProt P45984); assay: AlphaScreen kinase assay, Jnk2; settings: read-out: IC50, activity toward kinase Jnk2
T15 construct: purchased Roche Protein Expression Group (Indianapolis, IN)
How it was run: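 Uses phospho-specific antibody on acceptor beads plus streptavidin donor beads capturing biotinylated peptide substrate; singlet oxygen from donor excites nearby acceptor. Inhibitors tested in 8-point, 1:3 titrations starting from 20 mM DMSO solutions.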

[16] = target: T16, Jnk1 (Homo sapiens, UniProt P45983); assay: AlphaScreen kinase assay, Jnk1; settings: read-out: IC50, activity toward kinase Jnk1
T16 construct: purchased Upstate Biotechnology

[17] = target: T17, Pyk2 (Homo sapiens, UniProt Q14289); assay: AlphaScreen kinase assay, Pyk2; settings: read-out: IC50, activity toward kinase Pyk2
T17 construct: purchased Upstate Biotechnology
Excerpt: as §1, §2

Measured: IC50

T8 sequence (P11362 458-765 C488A/C584S): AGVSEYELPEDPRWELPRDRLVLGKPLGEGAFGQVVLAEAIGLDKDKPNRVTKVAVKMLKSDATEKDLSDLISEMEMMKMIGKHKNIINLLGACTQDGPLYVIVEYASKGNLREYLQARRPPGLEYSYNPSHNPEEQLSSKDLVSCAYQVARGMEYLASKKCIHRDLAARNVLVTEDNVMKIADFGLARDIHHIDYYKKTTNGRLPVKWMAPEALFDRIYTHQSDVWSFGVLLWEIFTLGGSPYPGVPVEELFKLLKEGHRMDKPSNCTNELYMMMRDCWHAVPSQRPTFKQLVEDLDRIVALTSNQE
T6 sequence (P07333 20-972): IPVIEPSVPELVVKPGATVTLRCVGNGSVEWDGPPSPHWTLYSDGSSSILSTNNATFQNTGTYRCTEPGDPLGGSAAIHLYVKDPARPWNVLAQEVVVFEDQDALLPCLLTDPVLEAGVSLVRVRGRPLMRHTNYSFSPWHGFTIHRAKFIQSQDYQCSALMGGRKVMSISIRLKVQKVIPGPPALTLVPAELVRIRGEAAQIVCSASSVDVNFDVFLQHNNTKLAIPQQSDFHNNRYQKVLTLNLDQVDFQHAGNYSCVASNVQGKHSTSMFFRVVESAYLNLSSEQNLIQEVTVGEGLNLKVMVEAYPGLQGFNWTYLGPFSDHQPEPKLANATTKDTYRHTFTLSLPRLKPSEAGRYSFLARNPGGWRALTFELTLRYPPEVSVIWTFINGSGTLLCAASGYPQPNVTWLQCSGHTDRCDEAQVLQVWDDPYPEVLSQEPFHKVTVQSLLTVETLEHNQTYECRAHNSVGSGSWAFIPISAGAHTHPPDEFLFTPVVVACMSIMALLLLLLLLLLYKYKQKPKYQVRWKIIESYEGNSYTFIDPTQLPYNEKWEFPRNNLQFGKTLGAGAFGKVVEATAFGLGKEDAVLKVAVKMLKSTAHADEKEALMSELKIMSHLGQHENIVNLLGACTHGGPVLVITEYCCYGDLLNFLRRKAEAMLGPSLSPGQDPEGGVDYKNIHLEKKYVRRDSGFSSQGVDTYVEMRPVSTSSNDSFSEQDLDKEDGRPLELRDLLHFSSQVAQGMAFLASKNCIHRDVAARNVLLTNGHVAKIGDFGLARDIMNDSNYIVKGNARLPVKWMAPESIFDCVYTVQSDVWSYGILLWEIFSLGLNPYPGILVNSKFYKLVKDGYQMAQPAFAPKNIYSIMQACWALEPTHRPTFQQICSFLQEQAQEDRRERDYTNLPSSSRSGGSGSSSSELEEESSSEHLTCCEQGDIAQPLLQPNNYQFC
T5 sequence (P07947 whole entry): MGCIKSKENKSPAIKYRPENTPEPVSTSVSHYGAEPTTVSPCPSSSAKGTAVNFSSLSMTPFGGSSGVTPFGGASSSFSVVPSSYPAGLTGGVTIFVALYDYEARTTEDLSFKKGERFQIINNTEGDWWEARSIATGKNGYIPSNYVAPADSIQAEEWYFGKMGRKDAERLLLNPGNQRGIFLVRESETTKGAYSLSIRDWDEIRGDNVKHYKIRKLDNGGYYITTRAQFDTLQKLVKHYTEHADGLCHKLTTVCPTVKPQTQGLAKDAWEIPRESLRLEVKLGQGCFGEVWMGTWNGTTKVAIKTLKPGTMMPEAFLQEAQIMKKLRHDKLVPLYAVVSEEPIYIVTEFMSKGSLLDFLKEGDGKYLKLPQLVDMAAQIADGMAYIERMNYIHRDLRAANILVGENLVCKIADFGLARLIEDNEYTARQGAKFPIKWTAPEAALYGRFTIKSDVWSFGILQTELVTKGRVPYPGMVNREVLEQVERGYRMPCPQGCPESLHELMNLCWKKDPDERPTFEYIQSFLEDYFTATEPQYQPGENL
T4 sequence (P35968 20-1356): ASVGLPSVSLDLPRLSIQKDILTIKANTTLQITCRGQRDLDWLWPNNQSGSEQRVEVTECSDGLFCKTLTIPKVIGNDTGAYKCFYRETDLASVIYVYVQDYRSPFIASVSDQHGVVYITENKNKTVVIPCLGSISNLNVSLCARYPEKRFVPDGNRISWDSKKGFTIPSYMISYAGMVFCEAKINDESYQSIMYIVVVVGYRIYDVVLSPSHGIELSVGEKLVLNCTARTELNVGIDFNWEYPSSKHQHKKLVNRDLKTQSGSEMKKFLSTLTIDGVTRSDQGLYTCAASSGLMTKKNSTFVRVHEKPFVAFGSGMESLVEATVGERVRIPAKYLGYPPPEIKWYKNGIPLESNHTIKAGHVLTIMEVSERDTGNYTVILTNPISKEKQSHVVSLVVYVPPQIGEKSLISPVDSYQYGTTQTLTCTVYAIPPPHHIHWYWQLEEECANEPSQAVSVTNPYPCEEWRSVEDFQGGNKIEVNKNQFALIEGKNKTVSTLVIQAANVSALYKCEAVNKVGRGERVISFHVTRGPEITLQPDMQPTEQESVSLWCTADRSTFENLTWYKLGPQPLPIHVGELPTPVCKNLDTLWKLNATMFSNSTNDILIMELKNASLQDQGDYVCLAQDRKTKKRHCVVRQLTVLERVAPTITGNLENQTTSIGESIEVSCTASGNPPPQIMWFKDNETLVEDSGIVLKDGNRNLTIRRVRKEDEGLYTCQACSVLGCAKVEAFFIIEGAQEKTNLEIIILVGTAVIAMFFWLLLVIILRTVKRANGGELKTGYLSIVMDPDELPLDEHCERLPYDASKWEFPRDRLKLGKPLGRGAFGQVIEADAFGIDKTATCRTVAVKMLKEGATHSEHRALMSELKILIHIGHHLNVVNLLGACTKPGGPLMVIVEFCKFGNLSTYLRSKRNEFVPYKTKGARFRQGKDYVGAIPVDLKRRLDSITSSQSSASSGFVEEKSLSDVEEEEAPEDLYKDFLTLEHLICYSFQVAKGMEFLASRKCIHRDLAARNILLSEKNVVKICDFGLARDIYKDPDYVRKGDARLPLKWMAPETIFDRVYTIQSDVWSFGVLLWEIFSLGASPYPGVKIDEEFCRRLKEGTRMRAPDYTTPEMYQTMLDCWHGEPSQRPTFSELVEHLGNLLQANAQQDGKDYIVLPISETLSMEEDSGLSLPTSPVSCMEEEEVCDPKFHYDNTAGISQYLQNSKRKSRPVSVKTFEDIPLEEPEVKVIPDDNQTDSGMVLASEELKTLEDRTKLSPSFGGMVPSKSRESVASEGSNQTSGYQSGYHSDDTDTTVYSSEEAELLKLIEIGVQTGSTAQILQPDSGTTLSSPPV
T7 sequence (P15056 with tags, fused parts or gaps V600E): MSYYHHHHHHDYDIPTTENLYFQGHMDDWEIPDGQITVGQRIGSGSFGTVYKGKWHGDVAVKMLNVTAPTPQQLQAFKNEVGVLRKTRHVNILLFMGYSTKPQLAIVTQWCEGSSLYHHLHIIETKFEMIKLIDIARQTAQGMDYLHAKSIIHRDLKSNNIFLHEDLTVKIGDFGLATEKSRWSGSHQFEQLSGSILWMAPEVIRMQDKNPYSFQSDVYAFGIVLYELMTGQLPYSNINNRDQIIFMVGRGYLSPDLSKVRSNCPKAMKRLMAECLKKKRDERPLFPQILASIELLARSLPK
T2 sequence (P15056 whole entry): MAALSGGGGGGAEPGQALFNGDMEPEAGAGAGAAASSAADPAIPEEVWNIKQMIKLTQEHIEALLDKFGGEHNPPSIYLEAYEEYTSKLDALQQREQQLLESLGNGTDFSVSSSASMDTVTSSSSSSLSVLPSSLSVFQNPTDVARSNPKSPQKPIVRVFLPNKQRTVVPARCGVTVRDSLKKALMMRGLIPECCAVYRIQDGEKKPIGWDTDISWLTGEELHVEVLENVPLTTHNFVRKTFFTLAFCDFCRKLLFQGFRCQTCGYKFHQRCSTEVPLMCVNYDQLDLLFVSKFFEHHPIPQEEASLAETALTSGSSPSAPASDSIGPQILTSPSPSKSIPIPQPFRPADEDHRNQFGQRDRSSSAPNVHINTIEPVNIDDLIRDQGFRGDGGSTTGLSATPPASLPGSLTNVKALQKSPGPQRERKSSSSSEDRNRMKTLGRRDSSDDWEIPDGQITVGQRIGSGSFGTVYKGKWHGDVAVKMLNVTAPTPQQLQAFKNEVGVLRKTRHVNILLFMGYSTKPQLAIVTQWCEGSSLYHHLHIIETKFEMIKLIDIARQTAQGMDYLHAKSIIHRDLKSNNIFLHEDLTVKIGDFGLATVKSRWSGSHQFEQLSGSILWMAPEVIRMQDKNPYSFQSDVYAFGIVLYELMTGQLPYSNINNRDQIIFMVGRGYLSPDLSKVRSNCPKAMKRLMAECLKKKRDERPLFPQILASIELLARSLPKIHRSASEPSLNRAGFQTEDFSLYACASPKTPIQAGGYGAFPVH
T9 sequence (P04049 whole entry): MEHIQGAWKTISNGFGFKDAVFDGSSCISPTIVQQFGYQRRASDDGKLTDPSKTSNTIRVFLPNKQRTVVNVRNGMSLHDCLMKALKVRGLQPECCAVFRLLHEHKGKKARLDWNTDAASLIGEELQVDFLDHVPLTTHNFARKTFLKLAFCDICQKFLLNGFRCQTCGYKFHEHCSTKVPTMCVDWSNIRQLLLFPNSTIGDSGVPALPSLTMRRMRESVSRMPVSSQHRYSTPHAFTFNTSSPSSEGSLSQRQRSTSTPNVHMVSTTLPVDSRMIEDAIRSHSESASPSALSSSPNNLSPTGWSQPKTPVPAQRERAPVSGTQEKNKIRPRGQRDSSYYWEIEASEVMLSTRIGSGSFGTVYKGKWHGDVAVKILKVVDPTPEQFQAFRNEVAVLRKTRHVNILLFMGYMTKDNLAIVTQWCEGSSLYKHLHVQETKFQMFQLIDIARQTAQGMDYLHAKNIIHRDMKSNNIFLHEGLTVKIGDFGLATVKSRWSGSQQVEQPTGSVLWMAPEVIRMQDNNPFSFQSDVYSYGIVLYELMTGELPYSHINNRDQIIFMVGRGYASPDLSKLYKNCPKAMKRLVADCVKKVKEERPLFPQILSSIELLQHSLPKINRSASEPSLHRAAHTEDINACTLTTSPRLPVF

COC(=O)Nc1ccc(F)c(C(O)c2c[nH]c3ncc(-c4cccnc4)cc23)c1F (stereo not drawn) [Compound P-0065, {2,4-difluoro-3-[hydroxy-(5-pyridin-3-yl-1H-pyrrolo[2,3b]pyridin-3-yl)-methyl]-phenyl}-carbamic acid methyl ester]
≤ 10 µM: [1] | [2] | [3] | [4] | [5]

c1csc(CNc2ccc(Cc3c[nH]c4ncccc34)cn2)c1 [Compound P-0129]
≤ 10 µM: [1] | [6] | [7] | [4] | [5] | [8]

COc1ccc(-c2cnc3[nH]cc(C#Cc4ccccc4)c3c2)cc1OC [Compound P-0153]
≤ 10 µM: [1] | [7] | [5]

COc1cccc(C(O)c2c[nH]c3ncc(-c4cccs4)cc23)c1 (stereo not drawn) [Compound P-0161]
≤ 10 µM: [4] | [5]

CS(=O)(=O)Nc1ccc(F)c(C(=O)c2c[nH]c3ncc(Br)cc23)c1F [Compound P-0162, N-[3-(5-Bromo-1H-pyrrolo[2,3-b]pyridine-3-carbonyl)-2,4-difluoro-phenyl]-methanesulfonamide]
≤ 10 µM: [1] | [2] | [7] | [4] | [5] | [9]

COc1ccc(F)c(C(=O)c2c[nH]c3nccc(Cl)c23)c1 [Compound P-0175]
≤ 10 µM: [6] | [7] | [3] | [4] | [10] | [5] | [8]

O=C(c1cccc(O)c1)c1c[nH]c2ncc(-c3ccccc3)cc12 [Compound P-0230]
≤ 10 µM: [4] | [5]

CC(=O)Oc1cccc(C(=O)c2c[nH]c3ncc(Br)cc23)c1C [Compound P-0271]
≤ 10 µM: [2] | [7] | [5] | [8]

C(=C\c1c[nH]c2ncccc12)/c1ccc(NCc2ccccc2)cc1 [Compound P-0283]
≤ 10 µM: [1] | [5]

O=C(c1ccc(NCc2cccc(F)c2)nc1)c1c[nH]c2ncccc12 [Compound P-0327]
≤ 10 µM: [6] | [5]

O=C(c1ccc(NCc2ccccc2)nc1)c1c[nH]c2ncccc12 [Compound P-0483]
≤ 10 µM: [6] | [7] | [11] | [12] | [13] | [5] | [8]

COC(=O)Nc1ccc(F)c(C(=O)c2c[nH]c3ncc(-c4cccnc4)cc23)c1F [Compound P-0486, [2,4-Difluoro-3-(5-pyridin-3-yl-1H-pyrrolo[2,3-b]pyridine-3-carbonyl)-phenyl]-carbamic acid methyl ester]
not listed: [1] | [4] | [5] | [10] | [12] | [13]
≤ 10 µM: all other assays above

Reference: US8415469B2, “Compounds and methods for kinase modulation, and indications therefor” (Plexxikon Inc., priority 2005, dated 2013)
